Results on 17 compounds are retold here after the RepoRT retention time repository (doi:10.1186/gb-2013-14-6-r54).

The structures appear in SMILES notation.

A short description of the data set: RP, Hichrom Alltima HP C18, 150 × 2.1 mm, 3 µm, 0.2 mL/min, estimated dead time 1.7 min; A: 90% water + 5% acetonitrile + 5% formic acid; B: acetonitrile; gradient (min/%B) 0/0 5/10 25/20 30/25 45/70 65/0. The settings on record: stereoisomer not certain.
With `O=C(O)CC(O)(CC(=O)O)C(=O)O` [citric acid], the LC retention time is 3.04 min. In the case of `OCC1OC(Oc2cc3c(O)cc(O)cc3[o+]c2-c2ccc(O)c(O)c2)C(O)C(O)C1O` (configuration not stated) [cyanidin-3-O-glucoside], the LC retention time is 14.4 min. The figure for `O=C(C=Cc1ccc(O)cc1)OCC1OC(Oc2cc3c(O)cc(=O)cc-3oc2-c2ccc(O)c(O)c2)C(O)C(O)C1O` (stereo not drawn) [cyanidin-(coumaroyl)-3-O glucoside, trans isomer] is 27.6 min.

Consider `OCC1OC(Oc2cc3c(O)cc(O)cc3[o+]c2-c2cc(O)c(O)c(O)c2)C(O)C(O)C1O` (configuration not stated) [delfinidin-3-O-glucoside], for which the LC retention time is 12.5 min. With `OCC1OC(OC2(CO)OC(CO)C(O)C2O)C(O)C(O)C1O` (configuration not stated) [di-hexose (sucrose)], the LC retention time is 2.52 min.

With `CC1OC(OC2C(=O)c3c(O)cc(O)cc3OC2c2ccc(O)c(O)c2)C(O)C(O)C1O` (configuration not stated) [dihydroquercetin-O-deoxyhexoside (astilbin)], the LC retention time is 19.8 min. Then `O=C(O)C(O)C(O)C(O)C(O)CO` (configuration not stated) [gluconic acid], with 2.37 min. On to `NC(CCC(=O)NC(CS)C(=O)NCC(=O)O)C(=O)O` (configuration not stated) [glutathione], for which the LC retention time was 3.04 min. With `OCC1OC(O)C(O)C(O)C1O` (configuration not stated) [hexose], the LC retention time is 2.4 min. For `O=C(O)CC(O)C(=O)O` (configuration not stated) [malic acid], the LC retention time was 2.72 min. In the case of `COc1cc(-c2oc3cc(=O)cc(O)c-3cc2OC2OC(CO)C(O)C(O)C2O)cc(OC)c1O` (configuration not stated) [malvidin-3-O-glucoside], the LC retention time is 18 min. Regarding `O=C(OC1OC(CO)C(O)C(O)C1O)c1cc(O)c(O)c(O)c1` (configuration not stated) [monogalloyl glucose], the LC retention time is 3.53 min. On to `COc1cc(-c2[o+]c3cc(O)cc(O)c3cc2OC2OC(CO)C(O)C(O)C2O)ccc1O` (configuration not stated) [peonidin-3-O-glucoside], for which the LC retention time is 17.2 min. For the compound `COc1cc(-c2[o+]c3cc(O)cc(O)c3cc2OC2OC(CO)C(O)C(O)C2O)cc(O)c1O` (configuration not stated) [petunidin-3-O-glucoside], the LC retention time was 15.6 min.

As for `O=C(O)C1OC(Oc2c(-c3ccc(O)c(O)c3)oc3cc(O)cc(O)c3c2=O)C(O)C(O)C1O` (configuration not stated) [quercetin glucuronide], the LC retention time is 20 min. Then `O=C(O)C(O)C(O)C(=O)O` (configuration not stated) [tartaric acid], with 2.52 min; and `NC(Cc1cn(C2OC(CO)C(O)C(O)C2O)c2ccccc12)C(=O)O` (configuration not stated) [tryptophan-N-glucoside], with 15.8 min.
